The record followed here is US8324223B2, “Substituted thieno [2,3-d] pyrimidines as HIV inhibitors” (priority 2006, dated 2012).

Each structure is given as a SMILES string.

Holding throughout (test): microbe, parasite or virus in culture
What all share (assay type): cell-based, human immunodeficiency virus type 1 (HIV-1)

Test [1] has as its system HIV-1 L100I-K103N. Particulars: Human immunodeficiency virus 1, HeLa, read-out: EC50 L100I-K103N (nM).
The test system of test [2] is wild type HIV-1. As to conditions: Human immunodeficiency virus 1, Hela-JC53, read-out: EC50 WT (nM).
Test [3] has as its system HIV-1 Y188L. Particulars: Human immunodeficiency virus 1, HeLa, read-out: EC50 Y188L (nM).
Test [4] deals with HIV-1 Y181C. As to conditions: Human immunodeficiency virus 1, HeLa, read-out: EC50 Y181C (nM).

In the case of `Cc1cc(C#N)cc(C)c1Oc1nc(Nc2ccc(C#N)cc2)nc2c(C)csc12` [Cpd 9], the EC50 in test [1], in test [2], in test [3] and in test [4] was less than 10 nM in each case.
In the case of `Cc1cc(C#N)cc(C)c1Oc1nc(Nc2ccc(C#N)cc2)nc2ccsc12` [Cpd 3], the EC50 (usually the midpoint of the concentration-response curve) is less than 10 nM in test [1], less than 10 nM in test [2], less than 10 nM in test [3] and 10 to 100 nM in test [4].
On to `Cc1cc(C)c(Nc2nc(Nc3ccc(C#N)cc3)nc3c(C)csc23)c(C)c1` [Cpd 8], for which the EC50 in test [2] was less than 10 nM; in test [3], 10 to 100 nM; in test [4], 10 to 100 nM.
Take `Cc1cc(C)c(Oc2nc(Nc3ccc(C#N)cc3)nc3ccsc23)c(C)c1` [Cpd 1]: the EC50 in test [1] was 10 to 100 nM; in test [2] it was less than 10 nM; in test [3] it was less than 10 nM; in test [4], less than 10 nM.
With `Cc1cc(C)c(Oc2nc(Nc3ccc(C#N)cc3)nc3sccc23)c(C)c1` [Cpd 4], the EC50 was 10 to 100 nM in test [1], less than 10 nM in test [2], 10 to 100 nM in test [3] and 10 to 100 nM in test [4].
For `Cc1cc(C)c(Oc2nc(Nc3ccc(C#N)cc3)nc3sc4c(c23)CCCC4)c(C)c1` [Cpd 5], the EC50 in test [1] was more than 100 nM; in test [2] it was 10 to 100 nM; in test [3], more than 100 nM; in test [4] it was more than 100 nM.
As to `Cc1cc(C)c(Oc2nc(Nc3ccc(C#N)cc3)nc3c(C)csc23)c(C)c1` [Cpd 6], the EC50 in test [1], in test [2], in test [3] and in test [4] was 10 to 100 nM in each case.
In the case of `Cc1cc(C#N)cc(C)c1Oc1nc(Nc2ccc(C#N)cc2)nc2sccc12` [Cpd 7], the EC50 in test [1] was 10 to 100 nM; in test [2] it was less than 10 nM; in test [3] it was less than 10 nM; in test [4] it was less than 10 nM.
Regarding `Cc1cc(C)c(Nc2nc(Nc3ccc(C#N)cc3)nc3ccsc23)c(C)c1` [Cpd 2], the EC50 is more than 100 nM in test [1], less than 10 nM in test [2], more than 100 nM in test [3] and 10 to 100 nM in test [4].
